In patent US8377942B2, “Isoxazolines derivatives and their use as pesticide” (Novartis AG, priority 2008, dated 2013):

These compounds were tested on Rhipicephalus sanguineus nymphs (assay: Activity in vivo against Rhipicephalus sanguineus nymphs on Mongolian gerbils (spray application)). Settings: Dose 100 mg/kg, tick number reduction vs placebo (Abbot's formula), 7 days after infestation.
Method: 3. Activity In Vivo Against Rhipicephalus sanguineus Nymphs on Mongolian Gerbils (Meriones unguiculatus) (Spray Application) On day 0, gerbils are treated with the test compound at a given dose by spray application. On day +1, the animals are infested with nymphs of R. sangineus. Ticks are left on the animals until full repletion. Seven days after infestation nymphs dropped off fully engorged are collected and counted. Efficacy in killing is expressed as a tick number reduction in comparison with a placebo treated group using the Abbot's formula.

Going from `FC(F)(F)C1(c2cc(Cl)cc(Cl)c2)CC(c2ccc(-n3cncn3)c3ccccc23)=NO1` (stereo not drawn) [Compound 1.1, 1-{4-[5-(3,5-dichloro-phenyl)-5-trifluoromethyl-4,5-dihydro-isoxazol-3-yl]-naphthalen-1-yl}-1H-[1,2,4]triazole] to `O=C(NCc1cn(-c2ccc(C3=NOC(c4cc(Cl)cc(Cl)c4)(C(F)(F)F)C3)c3ccccc23)nn1)c1ccncc1` (stereo not drawn) [Compound 1.61, N-(1-{4-[5-(3,5-dichloro-phenyl)-5-trifluoromethyl-4,5-dihydro-isoxazol-3-yl]-naphthalen-1-yl}-1H-[1,2,3]triazol-4-ylmethyl)-isonicotinamide], the “Efficacy (%)” value rises from 85% to 96%.

For `FC(F)(F)C1(c2cc(Cl)cc(Cl)c2)CC(c2ccc(-c3cn(Cc4ccccn4)nn3)c3ccccc23)=NO1` (stereo not drawn) [Compound 1.27, 2-(4-{4-[5-(3,5-dichloro-phenyl)-5-trifluoromethyl-4,5-dihydro-isoxazol-3-yl]-naphthalen-1-yl}-[1,2,3]triazol-1-ylmethyl)-pyridine], the “Efficacy (%)” value was 79%.
